Where “and” joins values, the source holds several entries; their conditions need not be identical. Identical values can stand only once. Toxic doses and inconclusive results are not listed. No stated cut-off is given here; in the data, active means T/C of 150% or more; inactive means T/C below 125%.
Test system: L1210 leukemia ip in BDF1 mice, survival T/C
Assay: NCI In Vivo Anticancer Drug Screen. Data for tumor model L1210 Leukemia (intraperitoneal) in B6D2F1 (BDF1) mice
Conditions: endpoint: mean survival time, higher = longer survival
Method in brief: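 Mice bearing the transplanted tumor received compound or vehicle. Survival of the treated group was divided by that of the vehicle-treated control group to give the ratio.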

[1] = dose: 12.5 mg/kg/injection, schedule: Q01DX009 (ip), vehicle: saline with Tween-80
[2] = dose: 25.0 mg/kg/injection, schedule: Q01DX009 (ip), vehicle: saline with Tween-80
[3] = dose: 50.0 mg/kg/injection, schedule: Q01DX009 (ip), vehicle: saline with Tween-80
[4] = dose: 100.0 mg/kg/injection, schedule: Q01DX001 (ip), vehicle: saline with Tween-80
[5] = dose: 100.0 mg/kg/injection, schedule: Q04DX003 (ip), vehicle: saline with Tween-80
[6] = dose: 200.0 mg/kg/injection, schedule: Q01DX001 (ip), vehicle: saline with Tween-80
[7] = dose: 200.0 mg/kg/injection, schedule: Q04DX003 (ip), vehicle: saline with Tween-80
[8] = dose: 400.0 mg/kg/injection, schedule: Q01DX001 (ip), vehicle: saline with Tween-80
[9] = dose: 100.0 mg/kg/injection, schedule: Q01DX009 (ip), vehicle: Klucel (hydroxypropylcellulose) (HPC)
[10] = dose: 200.0 mg/kg/injection, schedule: Q01DX009 (ip), vehicle: Klucel (hydroxypropylcellulose) (HPC)
[11] = dose: 100.0 mg/kg/injection, schedule: Q01DX001 (ip), vehicle: Klucel (hydroxypropylcellulose) (HPC)
[12] = dose: 200.0 mg/kg/injection, schedule: Q01DX001 (ip), vehicle: Klucel (hydroxypropylcellulose) (HPC)
[13] = dose: 100.0 mg/kg/injection, schedule: Q01DX009 (ip), vehicle: saline with Tween-80
[14] = dose: 200.0 mg/kg/injection, schedule: Q01DX009 (ip), vehicle: saline with Tween-80
[15] = dose: 400.0 mg/kg/injection, schedule: Q01DX001 (ip), vehicle: steriod suspending solution
[16] = dose: 100.0 mg/kg/injection, schedule: Q04DX003 (ip), vehicle: saline
[17] = dose: 200.0 mg/kg/injection, schedule: Q04DX003 (ip), vehicle: saline
[18] = dose: 400.0 mg/kg/injection, schedule: Q04DX003 (ip), vehicle: saline

Measured: T/C

CN(C)/N=C\c1ccccc1Cl
inactive: [1] 91 % of control | [2] 102 % of control | [3] 100 % of control and 101 % of control | [4] 100 % of control | [5] 101 % of control | [6] 96 % of control | [7] 98 % of control | [8] 117 % of control

CCOC(=O)c1c[nH]c2cc(Cl)ccc2c1=O
inactive: [9] 97 % of control | dose: 100.0 mg/kg/injection, schedule: Q04DX003 (ip), vehicle: Klucel (hydroxypropylcellulose) (HPC) 98 % of control | [10] 100 % of control | dose: 200.0 mg/kg/injection, schedule: Q04DX003 (ip), vehicle: Klucel (hydroxypropylcellulose) (HPC) 102 % of control | dose: 400.0 mg/kg/injection, schedule: Q01DX009 (ip), vehicle: Klucel (hydroxypropylcellulose) (HPC) 98 % of control | dose: 400.0 mg/kg/injection, schedule: Q04DX003 (ip), vehicle: Klucel (hydroxypropylcellulose) (HPC) 96 % of control

NC(CO)C(O)c1ccc(-c2ccccc2)cc1 (configuration not stated)
inactive: dose: 75.0 mg/kg/injection, schedule: Q04DX003 (ip), vehicle: Klucel (hydroxypropylcellulose) (HPC) 108 % of control | [11] 94 % of control | dose: 150.0 mg/kg/injection, schedule: Q04DX003 (ip), vehicle: Klucel (hydroxypropylcellulose) (HPC) 106 % of control | [12] 92 % of control | dose: 300.0 mg/kg/injection, schedule: Q04DX003 (ip), vehicle: Klucel (hydroxypropylcellulose) (HPC) 101 % of control | dose: 400.0 mg/kg/injection, schedule: Q01DX001 (ip), vehicle: Klucel (hydroxypropylcellulose) (HPC) 92 % of control

CC1=C(N)C(=O)C(C)=C(N)C1=O
inactive: dose: 100.0 mg/kg/injection, schedule: Q01DX001 (ip), vehicle: other 98 % of control | dose: 200.0 mg/kg/injection, schedule: Q01DX001 (ip), vehicle: other 88 % of control | dose: 400.0 mg/kg/injection, schedule: Q01DX001 (ip), vehicle: other 97 % of control

O=C(O)c1ccc(/C=C\c2cccc(S(=O)(=O)F)c2)cc1
inactive: [4] 100 % of control | [6] 97 % of control | [8] 92 % of control

CCCCCCCCCCCC[n+]1cccc2ccccc21
inactive: dose: 0.13 mg/kg/injection, schedule: Q01DX Z (ip), vehicle: carboxymethylcellulose (CMC) 112 % of control | dose: 0.25 mg/kg/injection, schedule: Q01DX Z (ip), vehicle: carboxymethylcellulose (CMC) 96 % of control | dose: 0.25 mg/kg/injection, schedule: Q04DX003 (ip), vehicle: saline 97 % of control | dose: 0.5 mg/kg/injection, schedule: Q01DX001 (ip), vehicle: saline 93 % of control | dose: 0.5 mg/kg/injection, schedule: Q01DX Z (ip), vehicle: carboxymethylcellulose (CMC) 98 % of control | dose: 0.5 mg/kg/injection, schedule: Q04DX003 (ip), vehicle: saline 92 % of control | dose: 0.7 mg/kg/injection, schedule: Q01DX009 (ip), vehicle: saline 92 % of control | dose: 1.0 mg/kg/injection, schedule: Q01DX001 (ip), vehicle: saline 88 % of control | dose: 1.0 mg/kg/injection, schedule: Q01DX015 (ip), vehicle: carboxymethylcellulose (CMC) 108 % of control | dose: 1.0 mg/kg/injection, schedule: Q01DX Z (ip), vehicle: carboxymethylcellulose (CMC) 98 % of control | dose: 1.0 mg/kg/injection, schedule: Q04DX003 (ip), vehicle: saline 108 % of control | dose: 1.4 mg/kg/injection, schedule: Q04DX003 (ip), vehicle: saline 94 % of control | dose: 2.0 mg/kg/injection, schedule: Q01DX015 (ip), vehicle: carboxymethylcellulose (CMC) 106 % of control

O=C(NC(O)C(Cl)(Cl)Cl)c1ccccc1O (configuration not stated)
inactive: [13] 95 % of control | [5] 93 % of control | [14] 103 % of control | [7] 95 % of control | dose: 400.0 mg/kg/injection, schedule: Q04DX003 (ip), vehicle: saline with Tween-80 95 % of control

COC(=O)C1=NNC(c2ccc(OC)cc2)C1 (configuration not stated)
inactive: dose: 100.0 mg/kg/injection, schedule: Q01DX001 (ip), vehicle: steriod suspending solution 115 % of control | dose: 200.0 mg/kg/injection, schedule: Q01DX001 (ip), vehicle: steriod suspending solution 97 % of control | [15] 103 % of control

CCN(Cc1ccccc1)C(=O)NC(C)(C)C
inactive: [9] 98 % of control | [10] 95 % of control

Clc1cc(Cl)c(C[N+]23CN4CN(CN(C4)C2)C3)cc1Cl
inactive: [1] 102 % of control | [2] 104 % of control | [3] 102 % of control | [13] 120 % of control | [14] 121 % of control

CS(=O)(=O)C(Cl)(Cl)S(C)(=O)=O
inactive: dose: 6.25 mg/kg/injection, schedule: Q01DX009 (ip), vehicle: saline with Tween-80 116 % of control | [1] 102 % of control | [2] 104 % of control

CC12OC1(C)C1(C)C3(C)OC3(C)C21C (configuration not stated)
inactive: dose: 50.0 mg/kg/injection, schedule: Q01DX009 (ip), vehicle: Klucel (hydroxypropylcellulose) (HPC) 97 % of control | [11] 100 % of control | [9] 96 % of control | [12] 100 % of control | [10] 96 % of control

C[N+]1(CCC[N+]2(C)CC3CC=CCC3C2)CCOCC1 (configuration not stated)
inactive: [16] 92 % of control | [17] 92 % of control | [18] 92 % of control

COC(C)C(OC)OC (configuration not stated)
inactive: dose: 100.0 mg/kg/injection, schedule: Q01DX009 (ip), vehicle: saline 98 % of control | [16] 101 % of control | dose: 200.0 mg/kg/injection, schedule: Q01DX009 (ip), vehicle: saline 96 % of control | [17] 103 % of control | dose: 400.0 mg/kg/injection, schedule: Q01DX009 (ip), vehicle: saline 96 % of control | [18] 92 % of control

CC1(C)CC(OP(=O)(OC2CC(C)(C)N(O)C(C)(C)C2)c2ccccc2)CC(C)(C)N1O
inactive: dose: 100.0 mg/kg/injection, schedule: Q01DX001 (ip), vehicle: water 91 % of control | dose: 200.0 mg/kg/injection, schedule: Q01DX001 (ip), vehicle: water 106 % of control | dose: 400.0 mg/kg/injection, schedule: Q01DX001 (ip), vehicle: water 89 % of control

COc1[nH]c(=O)ncc1Br
inactive: dose: 50.0 mg/kg/injection, schedule: Q01DX001 (ip), vehicle: saline 105 % of control | dose: 100.0 mg/kg/injection, schedule: Q01DX001 (ip), vehicle: saline 103 % of control | dose: 200.0 mg/kg/injection, schedule: Q01DX001 (ip), vehicle: saline 109 % of control | dose: 400.0 mg/kg/injection, schedule: Q01DX001 (ip), vehicle: saline 103 % of control

C=CCn1c(-c2cccs2)nc2c(=S)nc[nH]c21
inactive: dose: 65.0 mg/kg/injection, schedule: Q01DX009 (ip), vehicle: steriod suspending solution 95 % of control | dose: 180.0 mg/kg/injection, schedule: Q01DX009 (ip), vehicle: steriod suspending solution 88 % of control | [15] 89 % of control | dose: 800.0 mg/kg/injection, schedule: Q01DX001 (ip), vehicle: steriod suspending solution 89 % of control
